Values joined by “and” are separate entries in the source; they are usually repeats but may differ in a detail not shown here. Equal entries are not always repeated. Inconclusive results and toxic doses are left out. The calls were made as follows: active = survival T/C of 150% or more; inactive = T/C below 125% in these data.
System: P388 leukemia ip, CD2F1 mice, survival T/C
Experiment: NCI In Vivo Anticancer Drug Screen. Data for tumor model P388 Leukemia (intraperitoneal) in CD2F1 (CDF1) mice
Conditions: endpoint: median survival time, higher = longer survival
Procedure, shortened: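 Mice carrying the transplanted tumor received test compound or vehicle. Survival was recorded in each group, and the value is the treated-group measurement divided by that of the vehicle-treated control group.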

[1] = dose: 50.0 mg/kg/injection, schedule: Q04DX003 (ip), vehicle: Klucel (hydroxypropylcellulose) (HPC)

Measured: T/C

CCN1C[C@@]2(C)CCC(OC)C34[C@H]2[C@@H](OC(C)=O)C2(OCO[C@]25C[C@@H](OC)C2C[C@@]3(O)[C@H]5C2O)[C@@H]14 (stereo partly drawn)
inactive: dose: 4.0 mg/kg/injection, schedule: Q01DX005 (ip), vehicle: saline with Tween-80 100 % of control | dose: 8.0 mg/kg/injection, schedule: Q01DX005 (ip), vehicle: saline with Tween-80 99 % of control | dose: 16.0 mg/kg/injection, schedule: Q01DX005 (ip), vehicle: saline with Tween-80 97 % of control | dose: 32.0 mg/kg/injection, schedule: Q01DX005 (ip), vehicle: saline with Tween-80 107 % of control | dose: 64.0 mg/kg/injection, schedule: Q01DX005 (ip), vehicle: saline with Tween-80 108 % of control

N#CCCOCN(COCCC#N)c1nc(N(COCCC#N)COCCC#N)nc(N(COCCC#N)COCCC#N)n1
inactive: dose: 7.5 mg/kg/injection, schedule: Q01DX005 (ip), vehicle: DMSO 97 % of control | dose: 15.0 mg/kg/injection, schedule: Q01DX005 (ip), vehicle: DMSO 94 % of control | dose: 30.0 mg/kg/injection, schedule: Q01DX005 (ip), vehicle: DMSO 94 % of control

O=S(=O)(O)O.[NH-]CC(N)=O.[NH-]CC(N)=O.[Ni+2]
inactive: dose: 1.0 mg/kg/injection, schedule: Q01DX009 (ip), vehicle: saline 95 % of control | dose: 2.0 mg/kg/injection, schedule: Q01DX009 (ip), vehicle: saline 90 % of control | dose: 4.0 mg/kg/injection, schedule: Q01DX009 (ip), vehicle: saline 95 % of control | dose: 8.0 mg/kg/injection, schedule: Q01DX009 (ip), vehicle: saline 90 % of control

O=C(O)c1cc(C(=O)O)c(C(=O)O)cc1C(=O)O
inactive: dose: 50.0 mg/kg/injection, schedule: Q01DX009 (ip), vehicle: water 96 % of control | dose: 100.0 mg/kg/injection, schedule: Q01DX009 (ip), vehicle: water 100 % of control | dose: 200.0 mg/kg/injection, schedule: Q01DX009 (ip), vehicle: water 99 % of control

Cc1ccc(S(=O)(=O)N/N=C/c2c(Br)nc3n2CCS3)cc1
inactive: dose: 100.0 mg/kg/injection, schedule: Q01DX001 (ip), vehicle: Klucel (hydroxypropylcellulose) (HPC) 94 % of control | dose: 200.0 mg/kg/injection, schedule: Q01DX001 (ip), vehicle: Klucel (hydroxypropylcellulose) (HPC) 89 % of control | dose: 400.0 mg/kg/injection, schedule: Q01DX001 (ip), vehicle: Klucel (hydroxypropylcellulose) (HPC) 92 % of control

CN([NH-])C(=S)[S-].CN([NH-])C(=S)[S-].[Ni]
inactive: [1] 100 % of control | dose: 50.0 mg/kg/injection, schedule: Q04DX003 (ip), vehicle: saline with Tween-80 100 % of control | dose: 100.0 mg/kg/injection, schedule: Q01DX001 (ip), vehicle: saline with Tween-80 120 % of control | dose: 100.0 mg/kg/injection, schedule: Q04DX003 (ip), vehicle: saline with Tween-80 100 % of control | dose: 200.0 mg/kg/injection, schedule: Q01DX001 (ip), vehicle: saline with Tween-80 101 % of control | dose: 200.0 mg/kg/injection, schedule: Q04DX003 (ip), vehicle: Klucel (hydroxypropylcellulose) (HPC) 117 % of control | dose: 400.0 mg/kg/injection, schedule: Q01DX001 (ip), vehicle: saline with Tween-80 123 % of control

[CH3][Sn]([CH3])([n]1cnc(N)nc1=O)[n]1cnc(N)nc1=O
inactive: dose: 6.25 mg/kg/injection, schedule: Q01DX005 (ip), vehicle: Klucel (hydroxypropylcellulose) (HPC) 108 % of control | dose: 12.5 mg/kg/injection, schedule: Q01DX005 (ip), vehicle: Klucel (hydroxypropylcellulose) (HPC) 120 % of control and 90 % of control | dose: 25.0 mg/kg/injection, schedule: Q01DX005 (ip), vehicle: Klucel (hydroxypropylcellulose) (HPC) 112 % of control and 113 % of control | dose: 50.0 mg/kg/injection, schedule: Q01DX005 (ip), vehicle: Klucel (hydroxypropylcellulose) (HPC) 105 % of control and 118 % of control

CCN(CC)C1=NS(=O)(=O)c2ccccc2C(c2ccccc2)=C1C
inactive: dose: 25.0 mg/kg/injection, schedule: Q04DX003 (ip), vehicle: Klucel (hydroxypropylcellulose) (HPC) 99 % of control | [1] 99 % of control | dose: 100.0 mg/kg/injection, schedule: Q04DX003 (ip), vehicle: Klucel (hydroxypropylcellulose) (HPC) 100 % of control and 95 % of control | dose: 400.0 mg/kg/injection, schedule: Q04DX003 (ip), vehicle: Klucel (hydroxypropylcellulose) (HPC) 87 % of control

Source: PubChem BioAssay AID330 (DTP/NCI, 2004)
